Data on 3 molecules can be found in patent US8846711B2, “Heterocyclic acrylamides and their use as pharmaceuticals” (Fab Pharma S.A.S., priority 2009, dated 2014).

Structures are written as SMILES. In brackets after ≈: the same amount, converted by molar mass.

Test [1] has as its system Staphylococcus aureus NRS130. In words: MIC determination using agar dilution method. Format: cell-based. The note with it: MSSA / NRS 130, read-out: MIC (μg/ml) NRS130. How it is done:
(§1) Antibacterial activity was determined on strains from Mutabilis internal collection.
(§2) This protocol is compliant with Clinical Laboratory Standards Institute (CLSI) methodology as described in M7-A7 document of the CLSI. The compound to be tested is incorporated into Mueller-Hinton Agar medium (Fluka, Reference 70191) at one concentration per plate according to a geometric series of reason 2. Plates are inoculated with mid-log phase bacteria (inoculum=1×10^4 cfu/spot) and incubated overnight at 35° C. […] All manipulations, but compound handling (in pure DMSO), are performed under sterile conditions. The final DMSO concentration of DMSO in the plates is 2%. Vancomycin is used as reference.
For orientation: In agar dilution, organisms are placed on agar that contains the substance at set levels.

The subject of test [2] is Staphylococcus aureus NRS483. Put plainly: MIC determination using agar dilution method. Format: cell-based. The note with it: MRSA / NRS 483, read-out: MIC (μg/ml) NRS483. Here is the method:
as §1, §2

Test [3] deals with Staphylococcus aureus NRS484. Put plainly: MIC determination using agar dilution method. The note with it: MRSA / NRS 484, read-out: MIC (μg/ml) NRS484. Format: cell-based. Here is the method:
as §1, §2

Test [4] concerns Staphylococcus aureus NRS120. Put plainly: MIC determination using agar dilution method. The note with it: MRSA / NRS 120, read-out: MIC (μg/ml) NRS120. Format: cell-based. How it is done:
as §1, §2

In test [5] the test system is Staphylococcus aureus NRS269. In words: MIC determination using agar dilution method. The note with it: MRSA / NRS 269, read-out: MIC (μg/ml) NRS269. Format: cell-based. How it is done:
as §1, §2

For test [6], the system named is Staphylococcus aureus NRS123. Put plainly: MIC determination using agar dilution method. Format: cell-based. The note with it: MRSA / NRS 123, read-out: MIC (μg/ml) NRS123. How it is done: as §1, §2
Test [7] deals with Staphylococcus aureus NRS386. Put plainly: MIC determination using agar dilution method. Format: cell-based. The note with it: MRSA / NRS 386, read-out: MIC (μg/ml) NRS386. How it is done: as §1, §2
The subject of test [8] is Staphylococcus aureus NRS262. Put plainly: MIC determination using agar dilution method. Format: cell-based. The note with it: MSSA / NRS 262, read-out: MIC (μg/ml) NRS262. How it is done: as §1, §2
In test [9] the test system is Staphylococcus aureus NRS100. In words: MIC determination using agar dilution method. Format: cell-based. The note with it: MRSA / NRS 100, read-out: MIC (μg/ml) NRS100. Here is the method:
as §1, §2

The test system of test [10] is Staphylococcus aureus NRS383. In words: MIC determination using agar dilution method. The note with it: MRSA / NRS 383, read-out: MIC (μg/ml) NRS383. Format: cell-based. How it is done:
as §1, §2

The test system of test [11] is Staphylococcus aureus NRS385. In words: MIC determination using agar dilution method. Format: cell-based. The note with it: MRSA / NRS 385, read-out: MIC (μg/ml) NRS385. How it is done: as §1, §2
Test [12] relates to Staphylococcus aureus NRS22. In words: MIC determination using agar dilution method. Format: cell-based. The note with it: MRSA / NRS 22, read-out: MIC (μg/ml) NRS22. How it is done:
as §1, §2

Test [13] deals with Staphylococcus aureus NRS384. Put plainly: MIC determination using agar dilution method. Format: cell-based. The note with it: MRSA / NRS 384, read-out: MIC (μg/ml) NRS384. Here is the method: as §1, §2
Test [14] relates to Staphylococcus aureus NRS192. In words: MIC determination using agar dilution method. Format: cell-based. The note with it: MRSA / NRS 192, read-out: MIC (μg/ml) NRS192. How it is done: as §1, §2
The test system of test [15] is Staphylococcus aureus NRS482. In words: MIC determination using agar dilution method. Format: cell-based. The note with it: MRSA / NRS 482, read-out: MIC (μg/ml) NRS482. How it is done:
as §1, §2

For test [16], the system named is Staphylococcus aureus NRS382. In words: MIC determination using agar dilution method. Format: cell-based. The note with it: MRSA / NRS 382, read-out: MIC (μg/ml) NRS382. How it is done: as §1, §2
Test [17] has as its system Staphylococcus aureus NRS121. In words: MIC determination using agar dilution method. Format: cell-based. The note with it: MRSA / NRS 121, read-out: MIC (μg/ml) NRS121. Here is the method: as §1, §2
Test [18] relates to Staphylococcus aureus NRS119. Put plainly: MIC determination using agar dilution method. Format: cell-based. The note with it: MRSA / NRS 119, read-out: MIC (μg/ml) NRS119. How it is done: as §1, §2
Test [19] relates to Staphylococcus aureus NRS128. In words: MIC determination using agar dilution method. Format: cell-based. The note with it: MSSA / NRS 128, read-out: MIC (μg/ml) NRS128. Here is the method:
as §1, §2

Test [20] relates to Staphylococcus aureus NRS127. Put plainly: MIC determination using agar dilution method. Format: cell-based. The note with it: MRSA / NRS 127, read-out: MIC (μg/ml) NRS127. How it is done:
as §1, §2

The subject of test [21] is Staphylococcus aureus strain ATCC 29213. Put plainly: In vivo antibacterial activity, thigh infection model in neutropenic Swiss mice. The note with it: 50 mg/kg subcutaneously, 1.5 h after infection, FIG. 2.
Another test relates to S. aureus CIP 54.146. Put plainly: MIC determination using broth microdilution method. Format: cell-based. The note with it: Staphylococcus aureus, CIP54 / MSSA, read-out: MIC (μg/ml) S. aureus CIP 54.146. Here is the method: The compounds of the invention are useful antibacterial agents having a selective spectrum of activity in vitro against bacterial strains relying on FabI and related targets. […] The activity is presented as Minimum Inhibitory Concentration (MIC) expressed in μg/ml and was determined using broth microdilution or Agar dilution methods.
as §1
This protocol is compliant with Clinical Laboratory Standards Institute (CLSI) methodology as described in M7-A7 document of the CLSI. The compound to be tested is diluted according to a geometric series of reason 2 in pure DMSO. Dilutions are transferred in sterile polystyrene microplates, followed by mid-log phase bacteria in cation-adjusted Muller-Hinton broth (ca-MHB, Fluka, Reference 90922) with a final inoculum of 5×10^5 cfu/ml. Microplates are incubated overnight at 35° C. MIC is defined as the lowest concentration of antimicrobial agent that completely prevents visible bacterial growth. All manipulations, but compound handling (in pure DMSO), are performed under sterile conditions. The final concentration of DMSO in the plates is 2%.

Test [22] deals with recombinant S. aureus FabI enzyme (Staphylococcus aureus (strain MRSA252), UniProt Q6GI75). In words: FabI inhibition, fluorescence based assay. Format: biochemical. The note with it: in vitro. How it is done: Compound inhibitory activity of FabI enzyme is measured in vitro by the […] determination using a fluorescence based assay.
The protein FabI from S. aureus is prepared and purified using standard methods for recombinant protein expression after cloning of the gene in a prokaryotic expression vector.
The biochemical activity of the FabI enzyme is assessed using the following method.
The assay buffer “AB” contained 50 mM ADA (N-(2-acetamido)iminodiacetic acid monosodium salt) pH 6.5, 1 mM dithiothreitol, 0.006% Triton-X100 and 50 mM NaCl.
The following components are added in a white polystyrene Costar plate (Ref 3912) up to a final volume of 55.5 μL: 1.5 μL DMSO or inhibitor dissolved in DMSO and 54 μL of a FabI/NADPH/NADP+ mixture in AB. After 60 min of pre-incubation at room temperature, the reaction is started by addition of 5 μL of trans-2-octenoyl N-acetylcysteamine thioester (t-o-NAC) to a final volume of 60.5 μL. This reaction mixture is then composed of 2 nM FabI, 40 μM NADPH (Sigma, N7505), 10 μM NADP+ (Sigma, N5755), 100 μM t-O-NAC and compound at defined concentration. Fluorescence intensity of NADPH (λex=360 nm, […]) is measured immediately after t-O-NAC addition (T0), and approximately 50 min later (T50) by a Fluostar Optima (BMG) so as to achieve ±30% of NADPH conversion. Enzyme activity is calculated by first subtracting TO signal to T50 and then subtracting background signal (FabI=0). Percentages of inhibition are calculated against untreated samples (Inhibitor=0) and IC50 are fitted to a classical Langmuir equilibrium model using XLFIT (IDBS).

In the next test the target is E. coli FabI (Escherichia coli (strain K12), UniProt P0AEK4). The note with it: literature (Ward et al.); cited from earlier work.
Chain of E. coli FabI (P0AEK4 whole entry): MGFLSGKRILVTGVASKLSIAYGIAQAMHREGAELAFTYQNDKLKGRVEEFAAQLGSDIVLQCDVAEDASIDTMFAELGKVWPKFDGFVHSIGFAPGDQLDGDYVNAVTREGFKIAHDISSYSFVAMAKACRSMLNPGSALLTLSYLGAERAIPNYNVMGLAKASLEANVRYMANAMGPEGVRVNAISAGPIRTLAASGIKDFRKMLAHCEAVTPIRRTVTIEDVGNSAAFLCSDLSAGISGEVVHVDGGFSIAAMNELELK

Regarding `CCCCCOC1CN(C(=O)/C=C/c2cnc3c(c2)CCC(=O)N3)C1` [Example 15, 6-{(1E)-3-Oxo-3-[3-(pentyloxy)azetidin-1-yl]prop-1-en-1-yl}-3,4-dihydro-1,8-naphthyridin-2(1H)-one], the MIC in [1] is 2 µg/mL (≈ 5.82 µM); in [2], 4 µg/mL (≈ 11.6 µM); in test [3] it was 4 µg/mL (≈ 11.6 µM); in test [4] it was 2 µg/mL (≈ 5.82 µM); in test [5] it was 4 µg/mL (≈ 11.6 µM); in test [6], 2 µg/mL (≈ 5.82 µM). Moreover, the MIC is 4 µg/mL (≈ 11.6 µM) in test [7]; 4 µg/mL (≈ 11.6 µM) in [8]; 1 µg/mL (≈ 2.91 µM) in [9]; 4 µg/mL (≈ 11.6 µM) in test [10]; 4 µg/mL (≈ 11.6 µM) in [11]; 4 µg/mL (≈ 11.6 µM) in [12]. Further, the MIC in test [13] was found to be 4 µg/mL (≈ 11.6 µM); in test [14], 4 µg/mL (≈ 11.6 µM); in test [15] it was 4 µg/mL (≈ 11.6 µM); in [16], 4 µg/mL (≈ 11.6 µM); in test [17] it was 2 µg/mL (≈ 5.82 µM); in [18], 2 µg/mL (≈ 5.82 µM). Besides, the MIC worked out at 1 µg/mL (≈ 2.91 µM) in test [19], 2 µg/mL (≈ 5.82 µM) in [20] and 4 µg/mL (≈ 11.6 µM) in the test with S. aureus CIP 54.146. Also, the “in vivo antibacterial activity (bacterial burden in the thigh of infected mice)” value in test [21] was “able to protect mice against thigh dissemination”. The IC50 (in general, the concentration needed to halve the response being measured) in [22] stood at 0.025 µM.

Turning to `CN[C@H](CC(C)C)C(=O)N[C@H]1C(=O)N[C@@H](CC(N)=O)C(=O)N[C@H]2C(=O)N[C@H]3C(=O)N[C@H](C(=O)N[C@H](C(=O)O)c4cc(O)cc(O)c4-c4cc3ccc4O)[C@H](O)c3ccc(c(Cl)c3)Oc3cc2cc(c3O[C@@H]2O[C@H](CO)[C@@H](O)[C@H](O)[C@H]2O[C@H]2C[C@](C)(N)[C@H](O)[C@H](C)O2)Oc2ccc(cc2Cl)[C@H]1O` [Vancomycin, reference compound], the MIC stood at 1 µg/mL (≈ 0.69 µM) in [1]; 1 µg/mL (≈ 0.69 µM) in test [2]; 1 µg/mL (≈ 0.69 µM) in [3]; 1 µg/mL (≈ 0.69 µM) in test [4]; 2 µg/mL (≈ 1.38 µM) in [5]; 1 µg/mL (≈ 0.69 µM) in test [6]. Further, the MIC in test [7] was 1 µg/mL (≈ 0.69 µM); in test [8], 1 µg/mL (≈ 0.69 µM); in [9] it was 1 µg/mL (≈ 0.69 µM); in [10], 0.5 µg/mL (≈ 0.345 µM); in test [11] it was 1 µg/mL (≈ 0.69 µM); in [12], 4 µg/mL (≈ 2.76 µM). For the same molecule, the MIC in [13], in test [14], in test [15], in [16], in test [17] and in test [18] was 1 µg/mL (≈ 0.69 µM) in each case. Besides, the MIC in [19] and in test [20] was 1 µg/mL (≈ 0.69 µM) in each case.

As for `Oc1cc(Cl)ccc1Oc1ccc(Cl)cc1Cl` [Triclosan], the “inhibition of E. coli FabI” value at E. coli FabI is recorded as “reversible, tight-binding inhibitor”.
